Legend:
[1] = Impagnatiello et al., cited from earlier work
[2] = Solubility in water and aqueous solutions; format: physicochemical; details: aqueous solution at pH 6.0 containing 0.5% (w/w) of macrogol 15-hydroxystearate (Kolliphor® HS15)

For `CCNC(=O)CCC/C=C\C[C@@H]1[C@@H](/C=C/[C@H](CCc2ccccc2)OC(=O)CCCCCO[N+](=O)[O-])[C@H](O)C[C@@H]1O` [NCX 470, Hexanoic acid, 6-(nitrooxy)-, (1S,2E)-3-[(1R,2R,3S,5R)-2-[(2Z)-7-(ethylamino)-7-oxo-2-hepten-1-yl]-3,5-dihydroxycyclopentyl]-1-(2-phenylethyl)-2-propen-1-yl ester], the “IOP-lowering efficacy versus equimolar doses of bimatoprost” value ([1]; British Journal of Pharmacology (2018), vehicle 0.25% Tween 80, 0.02% BAK, 2% glycerine, 0.1% EDTA) is listed as “greater IOP-lowering efficacy”, the “intra ocular pressure (IOP)-lowering agent” value ([1]; Invest Ophthalmol Vis Sci. 2015) is listed as “effective” and the solubility [2] is listed as 0.070 % (w/w).

Source: patent US12186295B2, “Ophthalmic compositions containing a nitric oxide releasing prostamide” (NICOX S.A., priority 2018, dated 2025)
